From PMC11901902, “Design, Synthesis, and Cytotoxicity Evaluation of Novel Indolin-2-One Based Molecules on Hepatocellular Carcinoma HepG2 Cells as Protein Kinase Inhibitors” (Molecules, 2025) come the findings set out here.

Molecules are shown by their SMILES.

Assay type in all cases: cell-based, human
The subject of data set [1] is HepG2 cells. Briefly: Annexin-V-FITC/PI apoptosis assay. The note with it: HepG2, compound at its IC50, 24 h. The protocol: Then, the cells were washed with PBS and detached by trypsin. The detached cells were collected into a 15-mL centrifuged tube, washed with ice-cold PBS twice, and centrifuged at 1200 rpm for 5 min. A volume of 0.1 mL binding buffer was added to the treated HepG-2 cells, followed by adding 5 μL of annexin V-FITC and 5 μL of 50 μg/mL PI staining reagents. After mixing and reacting at 25 °C for 15 min in the dark, the apoptotic cell percentages were analyzed by a flow cytometer [FACS Calibur flow cytometer (BD Biosciences)] (Table S5).

The subject of data set [2] is p21. In words: ELISA of p21 in treated HepG-2 cells. The note with it: HepG-2, compound at its IC50, 24 h. The protocol:
HepG2 cells were cultured in RPMI 10% + 5%FBS penicillin/streptomycin and were incubated at a humidity 5% CO2 and maintained at 37 °C. […] HepG2 cells were cultured as a monolayer in T-25 flasks and were seeded to attain 30% confluency prior to treatment. The main 100 mM stock dissolved in DMSO was diluted with the cell culture medium in order to reach the previously determined IC50 concentration of each of the three preparations. After that, HepG2 cells were collected via trypsinization and centrifuged at 10,000 rpm. The pellet was then rinsed with PBS and lysed in RIPA lysis buffer at 4 °C for 45 min, then centrifuged at 14,000 rpm for 20 min to remove the cellular debris. Lysates were then collected and stored at […] for protein determination. The levels of p53, p21, Fas-L, Bax, Bcl-2, and caspase 3/7 were assessed using the human P53 ELISA kit (Catalog No. ABIN6962151), P21 ELISA kit (Catalog No. ABIN6966175), Human Apoptosis Ligand (FAS-L), Bax ELISA kit, Human Factor-Related. Bcl-2 ELISA kit ELISA kit, and caspase3/7 ELISA kit (Elabscience Biotechnology Co., Wuhan, Hubei, China). The procedure of the used kits was done according to the manufacturer’s instructions. Briefly, equal amounts of cell lysates were loaded and then probed with specific antibodies. The samples were measured at 450 nm in ROBONEK P2000 ELISA reader. […]

Data set [3] relates to HepG-2 cells. In words: MTT cytotoxicity assay on HepG-2 cells. The note with it: for fold higher cytotoxicity than indirubin: HepG-2 cells, relative to indirubin; for viability at 1.25 µM / viability at 2.5 µM / viability at 5 µM / viability at 10 µM / viability at 20 µM / viability at 40 µM / viability at 80 µM / viability at 160 µM / IC50: Homo sapiens, HepG2; for viability at 1.25 µM: HepG-2, 1.25 µM; for viability at 1.25 µM / viability at 2.5 µM / viability at 5 µM / viability at 10 µM / viability at 20 µM / viability at 40 µM / viability at 80 µM / viability at 160 µM: Table S1; for viability at 2.5 µM: HepG-2, 2.5 µM; for viability at 5 µM: HepG-2, 5 µM; for viability at 10 µM: HepG-2, 10 µM; for viability at 20 µM: HepG-2, 20 µM; for viability at 40 µM: HepG-2, 40 µM; for viability at 80 µM: HepG-2, 80 µM; for viability at 160 µM: HepG-2, 160 µM; for IC50: MTT, 24 h treatment, mean of three experiments ± SEM.

Take `O=C1Nc2ccc(Cl)cc2C1=Nc1ccc2nc[nH]c(=O)c2c1` [Compound 9, 6-(5-Chloro-2-oxo-1,2-dihydro-indol-3-ylideneamino)-3H-quinazolin-4-one]: in data set [1], the “Apoptosis Early” value came to 5.05%, the “Apoptosis Late” value worked out at 3.72%, the “Apoptosis Total” value is given as 8.77% and the Necrosis turned out to be 2.69%. In data set [1], the “increase of cell population at late apoptosis compared with untreated control” value is “around 11 fold” and the “increase of cells in early apoptotic stage compared with untreated control” value is “around 6 fold”. In data set [2], the “upregulation of p21 expression compared to untreated cells” value came out at 4.52 fold. In data set [3], the “fold higher cytotoxicity than indirubin” value was 2.2–2.7 fold, the viability at 1.25 µM stood at 61.3 ± 3.6%, the viability at 2.5 µM came out at 54.4 ± 3.1% and the viability at 5 µM is 34.8 ± 0.9%. In data set [3], the viability at 10 µM is 28.6 ± 2.1%, the viability at 20 µM came to 23.1 ± 2.4%, the viability at 40 µM was 19.6 ± 2% and the viability at 80 µM amounted to 16.3 ± 1.7%. Moreover, in data set [3], the viability at 160 µM is 12.9 ± 1.5% and it took 2.53 ± 0.11 µM to reach half-maximal inhibition (IC50).
Take `O=C1Nc2ccc(Cl)cc2C1=Nc1ccc(-c2nc3ccccc3c(=O)[nH]2)cc1` [Compound 20, 2-[4-(5-Chloro-2-oxo-1,2-dihydro-indol-3-ylideneamino)-phenyl]-3H-quinazolin-4-one]: in data set [1], the “Apoptosis Early” value was determined as 4.91%, the “Apoptosis Late” value is 6.75%, the “Apoptosis Total” value amounted to 11.66% and the Necrosis is 1.91%. Also, in data set [1], the “increase of cell population at late apoptosis compared with untreated control” value is recorded as roughly 21 fold and the “increase of cells in early apoptotic stage compared with untreated control” value is recorded as “around 6 fold”. Moreover, the “upregulation of p21 expression compared to untreated cells” value in data set [2] amounted to 3.9 fold. Besides, in data set [3], the “fold higher cytotoxicity than indirubin” value is recorded as 2.2–2.7 fold, the viability at 1.25 µM is 58.2 ± 3.3%, the viability at 2.5 µM is 52.1 ± 2.9% and the viability at 5 µM came to 36.7 ± 1.2%. In data set [3], this compound gave a viability at 10 µM of 29.4 ± 2.5%, a viability at 20 µM of 21.7 ± 2%, a viability at 40 µM of 18.4 ± 1.8% and a viability at 80 µM of 15.2 ± 1.5%. In addition, in data set [3], the viability at 160 µM was 11.8 ± 1.3% and the IC50 was 3.08 ± 0.35 µM.
